# Like-named read-outs stand apart in the source and are kept apart here.
# Assays:
# Format in all cases: cell-based
# 168 GPCRs [1] = biological target: T1, 168 GPCRs (Homo sapiens, UniProt P32302)
# T1 construct: host or cells: PathHunter cell lines
# T1 sequence (P32302 1-372): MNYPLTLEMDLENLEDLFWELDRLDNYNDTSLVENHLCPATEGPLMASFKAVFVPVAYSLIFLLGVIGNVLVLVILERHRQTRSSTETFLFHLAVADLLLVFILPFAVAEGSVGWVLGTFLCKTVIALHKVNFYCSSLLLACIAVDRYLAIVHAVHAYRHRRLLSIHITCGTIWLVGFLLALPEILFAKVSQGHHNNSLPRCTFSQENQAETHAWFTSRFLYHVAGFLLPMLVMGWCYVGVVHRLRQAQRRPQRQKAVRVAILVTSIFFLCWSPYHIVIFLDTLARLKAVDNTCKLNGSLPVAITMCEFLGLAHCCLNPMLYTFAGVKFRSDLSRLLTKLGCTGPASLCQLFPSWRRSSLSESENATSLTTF
# 168 GPCRs [2] = biological target: T2, 168 GPCRs (Homo sapiens, UniProt P61073)
# T2 construct: host or cells: PathHunter cell lines
# T2 sequence (P61073 whole entry): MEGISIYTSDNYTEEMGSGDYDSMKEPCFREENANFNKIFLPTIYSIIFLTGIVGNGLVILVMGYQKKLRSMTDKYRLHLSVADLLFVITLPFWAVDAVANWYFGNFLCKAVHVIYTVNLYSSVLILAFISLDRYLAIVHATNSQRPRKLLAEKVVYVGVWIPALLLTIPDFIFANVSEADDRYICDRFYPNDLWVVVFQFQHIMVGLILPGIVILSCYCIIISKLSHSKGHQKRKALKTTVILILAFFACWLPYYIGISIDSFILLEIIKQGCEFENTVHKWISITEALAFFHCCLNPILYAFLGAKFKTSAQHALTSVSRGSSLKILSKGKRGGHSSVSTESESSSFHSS
# 168 GPCRs [3] = biological target: T3, 168 GPCRs (Homo sapiens, UniProt P48546); conditions: GIPR
# T3 construct: host or cells: PathHunter cell lines
# T3 sequence (P48546 22-466): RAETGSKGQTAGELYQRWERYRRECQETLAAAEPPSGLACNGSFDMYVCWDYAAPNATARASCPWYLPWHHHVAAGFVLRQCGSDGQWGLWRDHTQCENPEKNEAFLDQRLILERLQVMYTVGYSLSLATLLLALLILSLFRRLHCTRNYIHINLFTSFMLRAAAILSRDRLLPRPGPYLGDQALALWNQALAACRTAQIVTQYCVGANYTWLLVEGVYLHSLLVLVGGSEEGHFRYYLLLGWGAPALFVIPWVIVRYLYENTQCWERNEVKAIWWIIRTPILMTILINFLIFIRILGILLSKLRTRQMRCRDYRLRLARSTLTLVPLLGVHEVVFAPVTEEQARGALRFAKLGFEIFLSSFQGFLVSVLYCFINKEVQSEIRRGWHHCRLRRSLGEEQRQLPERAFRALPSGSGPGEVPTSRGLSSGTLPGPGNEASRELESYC
# 168 GPCRs [4] = biological target: T4, 168 GPCRs (Homo sapiens, UniProt P30559); conditions: OXTR
# T4 construct: host or cells: PathHunter cell lines
# T4 sequence (P30559 1-389): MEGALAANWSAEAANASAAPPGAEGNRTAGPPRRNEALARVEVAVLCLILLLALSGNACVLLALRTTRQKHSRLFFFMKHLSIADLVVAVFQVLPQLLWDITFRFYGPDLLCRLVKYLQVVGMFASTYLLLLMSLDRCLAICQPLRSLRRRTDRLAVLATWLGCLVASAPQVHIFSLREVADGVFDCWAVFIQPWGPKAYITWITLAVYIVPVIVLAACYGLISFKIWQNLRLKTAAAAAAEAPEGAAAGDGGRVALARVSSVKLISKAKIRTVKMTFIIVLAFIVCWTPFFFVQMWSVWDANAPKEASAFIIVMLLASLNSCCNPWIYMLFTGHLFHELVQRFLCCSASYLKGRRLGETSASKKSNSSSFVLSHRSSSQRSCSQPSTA
# 168 GPCRs [5] = biological target: T5, 168 GPCRs (Homo sapiens, UniProt P51681)
# T5 construct: host or cells: PathHunter cell lines
# T5 sequence (P51681 whole entry): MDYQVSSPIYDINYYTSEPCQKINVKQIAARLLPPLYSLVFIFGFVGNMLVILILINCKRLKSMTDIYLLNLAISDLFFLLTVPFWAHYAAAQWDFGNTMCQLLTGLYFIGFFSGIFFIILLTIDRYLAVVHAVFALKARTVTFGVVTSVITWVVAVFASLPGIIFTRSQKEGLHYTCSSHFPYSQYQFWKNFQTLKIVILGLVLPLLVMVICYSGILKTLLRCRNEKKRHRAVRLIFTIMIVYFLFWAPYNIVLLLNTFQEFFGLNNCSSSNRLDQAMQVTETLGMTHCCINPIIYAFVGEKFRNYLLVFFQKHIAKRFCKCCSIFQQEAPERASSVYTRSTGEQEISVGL
# 168 GPCRs [6] = biological target: T6, 168 GPCRs (Homo sapiens, UniProt P21918)
# T6 construct: host or cells: PathHunter cell lines
# T6 sequence (P21918 whole entry): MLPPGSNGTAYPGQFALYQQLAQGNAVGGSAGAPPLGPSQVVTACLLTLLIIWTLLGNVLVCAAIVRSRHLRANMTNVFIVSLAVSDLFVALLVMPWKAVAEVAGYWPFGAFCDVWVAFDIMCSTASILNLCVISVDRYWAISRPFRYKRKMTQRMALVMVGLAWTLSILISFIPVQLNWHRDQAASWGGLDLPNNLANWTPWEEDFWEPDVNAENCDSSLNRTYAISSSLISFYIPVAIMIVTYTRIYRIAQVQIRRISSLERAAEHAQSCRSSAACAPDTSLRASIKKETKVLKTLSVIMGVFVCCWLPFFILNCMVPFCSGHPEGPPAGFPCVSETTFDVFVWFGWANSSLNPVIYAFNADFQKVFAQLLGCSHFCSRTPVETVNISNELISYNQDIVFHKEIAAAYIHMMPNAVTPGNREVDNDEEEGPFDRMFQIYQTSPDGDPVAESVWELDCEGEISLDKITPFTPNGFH
# 168 GPCRs [7] = biological target: T7, 168 GPCRs (Homo sapiens, UniProt P34972)
# T7 construct: host or cells: PathHunter cell lines
# T7 sequence (P34972 whole entry): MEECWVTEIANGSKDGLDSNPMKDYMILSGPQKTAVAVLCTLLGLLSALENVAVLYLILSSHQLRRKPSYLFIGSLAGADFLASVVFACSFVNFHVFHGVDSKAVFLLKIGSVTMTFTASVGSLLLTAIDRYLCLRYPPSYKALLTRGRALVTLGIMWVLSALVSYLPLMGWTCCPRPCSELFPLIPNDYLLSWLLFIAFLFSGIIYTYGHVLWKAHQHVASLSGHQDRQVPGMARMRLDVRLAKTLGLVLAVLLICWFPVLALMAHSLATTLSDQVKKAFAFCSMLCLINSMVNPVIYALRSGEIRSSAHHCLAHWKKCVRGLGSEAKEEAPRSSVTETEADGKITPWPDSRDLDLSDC
# 168 GPCRs [8] = biological target: T8, 168 GPCRs (Homo sapiens, UniProt P32249)
# T8 construct: host or cells: PathHunter cell lines
# T8 sequence (P32249 whole entry): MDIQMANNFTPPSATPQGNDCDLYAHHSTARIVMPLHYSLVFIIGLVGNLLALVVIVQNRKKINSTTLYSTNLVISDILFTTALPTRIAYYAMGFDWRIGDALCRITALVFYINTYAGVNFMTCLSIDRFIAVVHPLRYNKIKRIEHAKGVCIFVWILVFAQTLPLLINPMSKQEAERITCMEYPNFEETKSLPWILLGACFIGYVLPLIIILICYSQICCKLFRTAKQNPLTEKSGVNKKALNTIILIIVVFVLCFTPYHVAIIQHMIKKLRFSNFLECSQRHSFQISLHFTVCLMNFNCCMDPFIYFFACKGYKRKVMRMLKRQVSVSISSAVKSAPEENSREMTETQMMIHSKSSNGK
# 168 GPCRs [9] = biological target: T9, 168 GPCRs (Homo sapiens, UniProt Q16602)
# T9 construct: host or cells: PathHunter cell lines
# T9 sequence (Q16602 23-461): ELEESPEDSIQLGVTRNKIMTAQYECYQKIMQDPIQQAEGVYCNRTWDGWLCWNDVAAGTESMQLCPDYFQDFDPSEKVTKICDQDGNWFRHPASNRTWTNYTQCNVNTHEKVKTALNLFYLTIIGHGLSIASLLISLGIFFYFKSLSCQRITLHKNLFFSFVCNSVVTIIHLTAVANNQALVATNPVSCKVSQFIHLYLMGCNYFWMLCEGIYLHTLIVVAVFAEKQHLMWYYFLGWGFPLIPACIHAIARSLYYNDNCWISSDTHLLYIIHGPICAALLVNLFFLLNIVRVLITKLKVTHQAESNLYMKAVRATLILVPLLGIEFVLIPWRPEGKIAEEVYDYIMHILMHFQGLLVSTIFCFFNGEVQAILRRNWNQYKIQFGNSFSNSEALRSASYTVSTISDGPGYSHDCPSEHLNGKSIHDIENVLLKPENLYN
# 168 GPCRs [10] = biological target: T10, 168 GPCRs (Homo sapiens, UniProt P21554)
# T10 construct: host or cells: PathHunter cell lines
# T10 sequence (P21554 whole entry): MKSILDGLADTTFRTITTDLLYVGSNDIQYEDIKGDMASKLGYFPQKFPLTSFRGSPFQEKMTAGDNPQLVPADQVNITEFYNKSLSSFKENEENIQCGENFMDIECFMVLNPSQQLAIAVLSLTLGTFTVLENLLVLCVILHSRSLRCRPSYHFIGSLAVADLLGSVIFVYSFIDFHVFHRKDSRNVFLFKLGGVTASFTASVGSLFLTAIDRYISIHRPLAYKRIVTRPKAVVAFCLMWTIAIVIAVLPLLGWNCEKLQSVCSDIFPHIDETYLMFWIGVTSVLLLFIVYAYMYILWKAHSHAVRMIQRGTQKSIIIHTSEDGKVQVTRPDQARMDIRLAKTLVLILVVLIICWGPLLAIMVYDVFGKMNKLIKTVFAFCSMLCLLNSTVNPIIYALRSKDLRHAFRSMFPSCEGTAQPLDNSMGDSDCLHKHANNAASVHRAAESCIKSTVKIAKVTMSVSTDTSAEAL
smiles,measurement,setting,value
"CNC(C)Cc1ccc2c(c1)OCO2 (stereo not drawn) [MDMA, 3,4-Methylenedioxy methamphetamine, reference compound]",% Agonist Activity,"168 GPCRs [1]; CXCR5, 1 uM",2.7%
same,% Antagonist Activity,"168 GPCRs [1]; CXCR5, 1 uM",-4.4%
same,% Agonist Activity,"168 GPCRs [1]; CXCR5, 10 uM",1.4%
same,% Antagonist Activity,"168 GPCRs [1]; CXCR5, 10 uM",3.2%
same,% Agonist Activity,"168 GPCRs [2]; CXCR4, 1 uM",3.1%
same,% Antagonist Activity,"168 GPCRs [2]; CXCR4, 1 uM",19.6%
same,% Agonist Activity,"168 GPCRs [2]; CXCR4, 10 uM",2.5%
same,% Antagonist Activity,"168 GPCRs [2]; CXCR4, 10 uM",14.6%
same,% Agonist Activity,168 GPCRs [3]; 1 uM,-2.6%
same,% Antagonist Activity,168 GPCRs [3]; 1 uM,-0.1%
same,% Agonist Activity,168 GPCRs [3]; 10 uM,-3.3%
same,% Antagonist Activity,168 GPCRs [3]; 10 uM,-0.1%
same,% Agonist Activity,168 GPCRs [4]; Conc 1 uM,-0.2%
same,% Antagonist Activity,168 GPCRs [4]; Conc 1 uM,3.7%
same,% Agonist Activity,168 GPCRs [4]; Conc 10 uM,0.6%
same,% Antagonist Activity,168 GPCRs [4]; Conc 10 uM,8.2%
same,% Agonist Activity,"168 GPCRs [5]; CCR5, 1 uM",0.2%
same,% Antagonist Activity,"168 GPCRs [5]; CCR5, 1 uM",4.5%
same,% Agonist Activity,"168 GPCRs [5]; CCR5, 10 uM",0.1%
same,% Antagonist Activity,"168 GPCRs [5]; CCR5, 10 uM",9.8%
same,% Agonist Activity,"168 GPCRs [6]; DRD5, 1 uM",1.7%
same,% Antagonist Activity,"168 GPCRs [6]; DRD5, 1 uM",10.8%
same,% Agonist Activity,"168 GPCRs [6]; DRD5, 10 uM",1.4%
same,% Antagonist Activity,"168 GPCRs [6]; DRD5, 10 uM",10.5%
same,% Agonist Activity,"168 GPCRs [7]; CNR2, 1 uM",0.1%
same,% Antagonist Activity,"168 GPCRs [7]; CNR2, 1 uM",8.9%
same,% Agonist Activity,"168 GPCRs [7]; CNR2, 10 uM",-6.8%
same,% Antagonist Activity,"168 GPCRs [7]; CNR2, 10 uM",7.8%
same,% Agonist Activity,"168 GPCRs [8]; EBI2, 1 uM",0.6%
same,% Antagonist Activity,"168 GPCRs [8]; EBI2, 1 uM",4.4%
same,% Agonist Activity,"168 GPCRs [8]; EBI2, 10 uM",-0.4%
same,% Antagonist Activity,"168 GPCRs [8]; EBI2, 10 uM",7.9%
same,% Agonist Activity,"168 GPCRs [9]; CALCRL-RAMP1, 1 uM",0.3%
same,% Antagonist Activity,"168 GPCRs [9]; CALCRL-RAMP1, 1 uM",6.8%
same,% Agonist Activity,"168 GPCRs [9]; CALCRL-RAMP1, 10 uM",-0.6%
same,% Antagonist Activity,"168 GPCRs [9]; CALCRL-RAMP1, 10 uM",8.1%
same,% Agonist Activity,"168 GPCRs [9]; CALCRL-RAMP2, 1 uM",-1%
same,% Antagonist Activity,"168 GPCRs [9]; CALCRL-RAMP2, 1 uM",28.7%
same,% Agonist Activity,"168 GPCRs [9]; CALCRL-RAMP2, 10 uM",0.9%
same,% Antagonist Activity,"168 GPCRs [9]; CALCRL-RAMP2, 10 uM",30.8%
same,% Agonist Activity,"168 GPCRs [9]; CALCRL-RAMP3, 1 uM",-0.9%
same,% Antagonist Activity,"168 GPCRs [9]; CALCRL-RAMP3, 1 uM",-8.1%
same,% Agonist Activity,"168 GPCRs [9]; CALCRL-RAMP3, 10 uM",-1.4%
same,% Antagonist Activity,"168 GPCRs [9]; CALCRL-RAMP3, 10 uM",-13%
same,% Agonist Activity,"168 GPCRs [10]; CNR1, 1 uM",-0.5%
same,% Antagonist Activity,"168 GPCRs [10]; CNR1, 1 uM",7.8%
same,% Agonist Activity,"168 GPCRs [10]; CNR1, 10 uM",0.1%
same,% Antagonist Activity,"168 GPCRs [10]; CNR1, 10 uM",11.2%
CNC(C)C(=O)c1ccc2c(c1)OCO2 (stereo not drawn) [methylone],% Agonist Activity,"168 GPCRs [1]; CXCR5, 1 uM",2.5%
same,% Antagonist Activity,"168 GPCRs [1]; CXCR5, 1 uM",-4.3%
same,% Agonist Activity,"168 GPCRs [1]; CXCR5, 10 uM",1.4%
same,% Antagonist Activity,"168 GPCRs [1]; CXCR5, 10 uM",-15.1%
same,% Agonist Activity,"168 GPCRs [2]; CXCR4, 1 uM",-4%
same,% Antagonist Activity,"168 GPCRs [2]; CXCR4, 1 uM",10.7%
same,% Agonist Activity,"168 GPCRs [2]; CXCR4, 10 uM",7%
same,% Antagonist Activity,"168 GPCRs [2]; CXCR4, 10 uM",-4.2%
same,% Agonist Activity,168 GPCRs [3]; 1 uM,-2.9%
same,% Antagonist Activity,168 GPCRs [3]; 1 uM,-1%
same,% Agonist Activity,168 GPCRs [3]; 10 uM,-5.8%
same,% Antagonist Activity,168 GPCRs [3]; 10 uM,-5.1%
same,% Agonist Activity,168 GPCRs [4]; Conc 1 uM,-0.6%
same,% Antagonist Activity,168 GPCRs [4]; Conc 1 uM,12.7%
same,% Agonist Activity,168 GPCRs [4]; Conc 10 uM,-0.5%
same,% Antagonist Activity,168 GPCRs [4]; Conc 10 uM,6.9%
same,% Agonist Activity,"168 GPCRs [5]; CCR5, 1 uM",-0.1%
same,% Antagonist Activity,"168 GPCRs [5]; CCR5, 1 uM",1.7%
same,% Agonist Activity,"168 GPCRs [5]; CCR5, 10 uM",0.3%
same,% Antagonist Activity,"168 GPCRs [5]; CCR5, 10 uM",-0.5%
same,% Agonist Activity,"168 GPCRs [6]; DRD5, 1 uM",-0.1%
same,% Antagonist Activity,"168 GPCRs [6]; DRD5, 1 uM",-5.9%
same,% Agonist Activity,"168 GPCRs [6]; DRD5, 10 uM",-0.2%
same,% Antagonist Activity,"168 GPCRs [6]; DRD5, 10 uM",-2.6%
same,% Agonist Activity,"168 GPCRs [7]; CNR2, 1 uM",7%
same,% Antagonist Activity,"168 GPCRs [7]; CNR2, 1 uM",3.6%
same,% Agonist Activity,"168 GPCRs [7]; CNR2, 10 uM",3.2%
same,% Antagonist Activity,"168 GPCRs [7]; CNR2, 10 uM",-3.2%
same,% Agonist Activity,"168 GPCRs [8]; EBI2, 1 uM",0.5%
same,% Antagonist Activity,"168 GPCRs [8]; EBI2, 1 uM",0.6%
same,% Agonist Activity,"168 GPCRs [8]; EBI2, 10 uM",-0.1%
same,% Antagonist Activity,"168 GPCRs [8]; EBI2, 10 uM",-2.6%
same,% Agonist Activity,"168 GPCRs [9]; CALCRL-RAMP1, 1 uM",-2.6%
same,% Antagonist Activity,"168 GPCRs [9]; CALCRL-RAMP1, 1 uM",4.7%
same,% Agonist Activity,"168 GPCRs [9]; CALCRL-RAMP1, 10 uM",-0.2%
same,% Antagonist Activity,"168 GPCRs [9]; CALCRL-RAMP1, 10 uM",7%
same,% Agonist Activity,"168 GPCRs [9]; CALCRL-RAMP2, 1 uM",0.1%
same,% Antagonist Activity,"168 GPCRs [9]; CALCRL-RAMP2, 1 uM",19.1%
same,% Agonist Activity,"168 GPCRs [9]; CALCRL-RAMP2, 10 uM",2.8%
same,% Antagonist Activity,"168 GPCRs [9]; CALCRL-RAMP2, 10 uM",7%
same,% Agonist Activity,"168 GPCRs [9]; CALCRL-RAMP3, 1 uM",-2.2%
same,% Antagonist Activity,"168 GPCRs [9]; CALCRL-RAMP3, 1 uM",-18.5%
same,% Agonist Activity,"168 GPCRs [9]; CALCRL-RAMP3, 10 uM",-2.2%
same,% Antagonist Activity,"168 GPCRs [9]; CALCRL-RAMP3, 10 uM",-7.5%
same,% Agonist Activity,"168 GPCRs [10]; CNR1, 1 uM",-0.4%
same,% Antagonist Activity,"168 GPCRs [10]; CNR1, 1 uM",-3.5%
same,% Agonist Activity,"168 GPCRs [10]; CNR1, 10 uM",-2.7%
same,% Antagonist Activity,"168 GPCRs [10]; CNR1, 10 uM",-17.1%
